Measurements published in the supplement of paper PMC10307832.

Experiments:
Experiment in all cases: relative viability (nuclei count vs DMSO), 5 days (fraction); higher = more cells survive
XMD13-2 + Luminespib = compound: C1CC1C(=O)NC2=NNC3=C2C=CC(=C3)C4=CC(=CC=C4)C(=O)NC5CC5 [XMD13-2] + CCNC(=O)c1noc(-c2cc(C(C)C)c(O)cc2O)c1-c1ccc(CN2CCOCC2)cc1 [Luminespib] (partner 0.01 µM)
In short: (§1)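 A single step with final 0.05% Triton X-100, 1% formaldehyde and 1 ug/ml Hoechst fixed the cells and stained nuclei 5 days after treatment. Lung cancer cell lines in 1536-well plates had been treated by pin tool the day after seeding with one drug alone or a fixed anchor-drug dose plus five library-drug doses (not always all listed) in √10 steps, and nuclei were counted on 4× images. Relative viability is the ratio of nuclei in treated wells to nuclei in vehicle wells, taken as the median of duplicate plates.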

ALW-II-49-7 + Bortezomib = compound: Cc1ccc(C(=O)Nc2cccc(C(F)(F)F)c2)cc1Nc1cncc(C(N)=O)c1 [ALW-II-49-7] + CC(C)C[C@H](NC(=O)[C@H](Cc1ccccc1)NC(=O)c1cnccn1)B(O)O [Bortezomib] (partner 0.002 µM)
In short: as §1

Dasatinib + Bortezomib = compound: Cc1nc(Nc2ncc(C(=O)Nc3c(C)cccc3Cl)s2)cc(N2CCN(CCO)CC2)n1 [Dasatinib] + CC(C)C[C@H](NC(=O)[C@H](Cc1ccccc1)NC(=O)c1cnccn1)B(O)O [Bortezomib] (partner 0.002 µM)
In short: as §1

XMD13-2 + Pemetrexed = compound: C1CC1C(=O)NC2=NNC3=C2C=CC(=C3)C4=CC(=CC=C4)C(=O)NC5CC5 [XMD13-2] + Nc1nc2[nH]cc(CCc3ccc(C(=O)N[C@@H](CCC(=O)O)C(=O)O)cc3)c2c(=O)[nH]1 [Pemetrexed] (partner 0.2 µM)
In short: as §1

Cell Line	relative viability (XMD13-2 + Luminespib; first compound 0.05 µM)	relative viability (XMD13-2 + Luminespib; first compound 0.1581 µM)	relative viability (XMD13-2 + Luminespib; first compound 0.5 µM)	relative viability (XMD13-2 + Luminespib; first compound 1.581 µM)	relative viability (XMD13-2 + Luminespib; first compound 5 µM)	relative viability (ALW-II-49-7 + Bortezomib; first compound 0.08 µM)	relative viability (ALW-II-49-7 + Bortezomib; first compound 0.253 µM)	relative viability (ALW-II-49-7 + Bortezomib; first compound 0.8 µM)	relative viability (ALW-II-49-7 + Bortezomib; first compound 2.53 µM)	relative viability (ALW-II-49-7 + Bortezomib; first compound 8 µM)	relative viability (Dasatinib + Bortezomib; first compound 0.005 µM)	relative viability (Dasatinib + Bortezomib; first compound 0.01581 µM)	relative viability (Dasatinib + Bortezomib; first compound 0.05 µM)	relative viability (Dasatinib + Bortezomib; first compound 0.1581 µM)	relative viability (Dasatinib + Bortezomib; first compound 0.5 µM)	relative viability (XMD13-2 + Pemetrexed; first compound 0.05 µM)	relative viability (XMD13-2 + Pemetrexed; first compound 0.1581 µM)	relative viability (XMD13-2 + Pemetrexed; first compound 0.5 µM)	relative viability (XMD13-2 + Pemetrexed; first compound 1.581 µM)	relative viability (XMD13-2 + Pemetrexed; first compound 5 µM)
201T	1.03	1.03	1.11	1.01	1.12	1.1	1.13	1.09	1.08	1.06	1.04	0.938	1.01	0.982	0.623	0.372	0.309	0.384	0.329	0.364
A-427	1.08	0.846	0.94	0.945	0.849	1.1	0.95	0.967	1.02	1.05	1	0.983	0.839	0.663	0.524	1.04	0.922	0.995		0.82
ABC-1	0.477	0.919	0.611	0.545	0.325	0.414	0.34	0.31	0.318	0.287	0.295	0.303	0.247	0.269	0.351					
BEN	0.53	0.437	0.384	0.246	0.289	0.851	0.828	0.789		0.875	0.628	0.439	0.425	0.315	0.362	0.876	0.858	0.734	0.641	0.803
CAL-12T	0.373	0.832	0.933	0.286	0.75	0.923			0.978	0.721	0.992	1.06	0.875	0.354	0.207	1.27	1.1	1.25	1.11	1.23
COR-L23	0.883	0.581	0.592	0.769	0.607	1.13	0.784	0.95	0.866	1.11	0.938	0.849	0.862	0.654	0.646	0.197	0.194	0.204	0.218	0.197
COR-L 105	0.867	0.852	0.704	0.749	0.789	0.802	0.681	0.826	0.587	0.767	0.611	0.51	0.498	0.318	0.273	1.01	1.26	1.04	0.98	1.26
Calu-6						1.18	0.95	1.04	0.785	0.885	0.869	0.855	0.746	0.642	0.513					
ChaGo-K-1	0.585	0.582	0.603	0.617	0.476	0.769	1.23	1.1	1.18	0.864	0.847	1.03	0.99	0.891	0.864	0.255	0.267	0.259	0.253	0.264
EBC-1						0.543	0.508	0.474	0.513	0.39	0.583	0.459	0.486	0.49	0.436					
EKVX	0.978	0.887	0.982	0.906	0.738	1.08	0.919	0.835	0.424	1.04	0.929	0.807	0.87	0.501	0.146	0.457	0.324	0.432		0.428
EMC-BAC-2	1.36	1.1	1.05	1.14	1.04	1.04	0.979	1.1	1.06	0.844	1.06	0.876	0.734	0.634	0.367	0.42	0.451	0.431	0.457	0.494
EPLC-272H	0.414	0.125	0.734	0.199	0.124	0.806	0.839	0.934	1.05	0.751	0.921	0.89	0.808	0.864	0.429	0.345	0.31	0.247	0.254	0.168
H3255	0.859	0.947	0.859	0.62	0.955	0.974	0.841	0.933	0.679	0.625	0.795	0.749	0.623	0.504	0.299	0.618	0.546	0.579	0.611	0.625
HARA	0.995	0.654	0.779	0.772	0.707	1.06	1.17	0.994	1.22	1.26	1.19	0.881	0.897	0.501	0.184	0.224	0.273	0.269	0.208	0.323
HCC-15	0.379	0.492	0.479	0.238	0.192	0.957	0.92	0.959	1.1	0.952	1.01	1.01	1.11	0.965	0.743	0.237	0.204	0.218	0.224	0.214
HCC-44	1.28	1.12	1.17	1.06	1.03	0.84	0.89	0.885	0.846	0.889	0.857	0.857	0.993	0.894	0.45	0.573	0.536	0.67	0.727	0.631
HCC-78						0.463	0.434	0.405		0.491	0.419	0.381	0.463	0.385	0.225	0.921	0.918	0.883	0.962	0.964
HCC-366						1.1	0.578	1.02	1.14	1.13	0.989	0.738	0.637	0.632	0.407	0.147	0.175	0.164	0.172	0.187

Cell Line	relative viability (XMD13-2 + Luminespib; first compound 0.05 µM)	relative viability (XMD13-2 + Luminespib; first compound 0.1581 µM)	relative viability (XMD13-2 + Luminespib; first compound 0.5 µM)	relative viability (XMD13-2 + Luminespib; first compound 1.581 µM)	relative viability (XMD13-2 + Luminespib; first compound 5 µM)	relative viability (ALW-II-49-7 + Bortezomib; first compound 0.08 µM)	relative viability (ALW-II-49-7 + Bortezomib; first compound 0.253 µM)	relative viability (ALW-II-49-7 + Bortezomib; first compound 0.8 µM)	relative viability (ALW-II-49-7 + Bortezomib; first compound 2.53 µM)	relative viability (ALW-II-49-7 + Bortezomib; first compound 8 µM)	relative viability (Dasatinib + Bortezomib; first compound 0.005 µM)	relative viability (Dasatinib + Bortezomib; first compound 0.01581 µM)	relative viability (Dasatinib + Bortezomib; first compound 0.05 µM)	relative viability (Dasatinib + Bortezomib; first compound 0.1581 µM)	relative viability (Dasatinib + Bortezomib; first compound 0.5 µM)	relative viability (XMD13-2 + Pemetrexed; first compound 0.05 µM)	relative viability (XMD13-2 + Pemetrexed; first compound 0.1581 µM)	relative viability (XMD13-2 + Pemetrexed; first compound 0.5 µM)	relative viability (XMD13-2 + Pemetrexed; first compound 1.581 µM)	relative viability (XMD13-2 + Pemetrexed; first compound 5 µM)
HCC-827	0.809	0.424	0.725	0.576	0.661	1.13	1.03	1.03	1.1	1.03	1.08	1.03	1.07	0.981	0.48	0.264	0.27	0.211	0.272	0.261
HOP-62	1	0.878	0.925	0.881	0.938	0.852	1.06	1.02	0.369	0.965	0.875	0.674	0.643	0.864	0.39	0.264	0.339	0.299	0.285	0.278
IA-LM						1.12	0.621	0.509	0.217	0.161	1.14	0.882	1.03	0.766	0.615					
LK-2	0.181	0.17	0.179	0.205	0.172											0.297	0.284	0.266	0.291	0.393
NCI-H358	0.487	0.202	0.418	0.196	0.321											0.171	0.168	0.175	0.179	0.166
NCI-H522	1.02	1.41	1.18	1.13	1.06											1.24	1.05	1.1	1.08	0.886
NCI-H727	0.475	0.326	0.352	0.34	0.378	0.678	1.09	0.67	0.895	0.787	0.606	0.663	0.554	0.463	0.258					
NCI-H1299						1.03	1.02	1.02	0.98	0.853	1.04	1.02	1.14	0.612	0.485					
NCI-H1395	0.669	0.668	0.809	0.66	0.83											0.93	0.998	0.879	0.876	0.911
NCI-H1623	0.594	0.514	0.517	0.456	0.502															
NCI-H1648																0.702		0.726	0.705	0.719
NCI-H1703						0.287	0.348	0.298	0.278	0.167	0.285	0.22	0.247	0.18	0.121					
NCI-H1793	0.277		0.168	0.172	0.175											1.26	0.83	0.94	0.859	0.97
NCI-H1944	0.797	0.756	0.758	0.899	0.697											0.74	0.573	0.622	0.875	0.642
NCI-H2170	0.506	0.515	0.776	0.55	0.908											0.284	0.294	0.323	0.267	0.285
NCI-H2342	0.721	0.712	0.642	0.767	0.806											0.806	0.711	0.772	0.72	0.775
SK-MES-1	1.06	0.67	0.773	0.711	0.556											1.01	0.894	0.911	0.909	0.864
SW 900	0.192	0.174	0.2	0.178	0.19											0.485	0.502	0.508	0.493	0.529
